Here are results for three compounds from patent US5688767A, “Treatment of endotoxin-associated disorders with cationic peptides” (priority 1996, dated 1997).

The test system of one data set is E. coli strain DC2. Nature of the data set: Antibacterial activity on acid-urea gel overlaid with bacteria. Format: cell-based, Escherichia coli. As to conditions: ≈10^5 E. coli strain DC2, overnight at 37° C. How it is done: A sample of the partially purified CEME protein was electrophoresed on a 15% acid-urea gel, which separates proteins based on charge and mass (Panyim and Chalkey, Arch. Biochem. Biophys., 130:337, 1969). The pH of the buffer is acidic (≈pH 5.0) and the polarity is reversed such that proteins migrate to the cathode. Therefore, the small cationic peptides run relatively quickly through the gel and thus can be easily identified. Antibacterial activity was tested as previously described (Hultmark, Eur. J. Biochem., 106:7, 1980). The gel was incubated in Mueller Hinton broth+0.2M NaPO4 pH 7.4 for 1 hr. It was overlaid with 5 mls of the same media containing 0.6% agar and ≈10^5 E. coli strain DC2, and then again with 5 ml of the same media containing only 0.6% agar. […] Melittin is used as a positive control due to its antibacterial activity and similarity in size and PI values.

Data set [1] deals with P. aeruginosa H309 or E. cloacae 218R1. Nature of the data set: Lysozyme lysis assay (outer membrane permeabilization). Format: cell-based, Pseudomonas aeruginosa; Enterobacter cloacae. The following applies: 50 μg/ml lysozyme, varying concentrations of compound. How it is done: Membrane permeabilization by polycationic compounds was measured in two different assays. The first assay measured membrane disruption by the ability of lysozyme to reach the periplasm and cause cell lysis. […] The uptake of lysozyme into whole cells due to membrane permeabilization by various compounds was previously described in Hancock, et al., Antimicrobial Agents and Chemo., 19:777, 1981. Overnight cultures of P. aeruginosa H309 or E. cloacae 218R1 grown in LB-S were diluted 1 in 50 in fresh medium and grown to an OD600 =0.5-0.6. The cells were harvested in a Silencer H-103N clinical centrifuge at 1800 g for 10 min, washed once with one volume of assay buffer (5 mM HEPES pH 7.2, 5 mM KCN), and resuspended in the same buffer to an OD600 of 0.5. Assays consisted of 600 μl of cells with 50 μg/ml of chicken egg white lysozyme and varying concentrations of cationic compounds. Cell lysis was measured as a decrease in the OD600 in a Perkin-Elmer dual beam spectrophotometer. Parallel experiments performed without lysozyme enabled the measurement of the lytic activity of the compounds themselves. To test whether or not permeability to lysozyme could be inhibited by divalent cations, various concentrations of MgCl2 were added to the assay after the addition of lysozyme and before the addition of the test compound.

Data set [2] has the same test system. The class given is cell-based, Pseudomonas aeruginosa; Enterobacter cloacae. The following applies: 10 μM NPN. An excerpt: The second assay determined membrane permeability by the ability of 1-N-phenylnaphthylamine(NPN), a small fluorescent probe, to insert itself into the membrane. Normally, very little NPN can penetrate the outer membrane, but in the presence of a membrane permeabilizer it can insert into the hydrophobic membrane resulting in an increase in fluorescence (FIGS. 7 and 8). This N-phenylnaphthylamine uptake assay was previously described by Loh, et al., Antimicrobial Agents and Chemo., 26:546, 1984. Cells were prepared exactly the same as for the lysozyme lysis assay. 1-N-phenylnaphthylamine(NPN) was dissolved in acetone at a concentration of 500 μM. NPN fluorescence was measured in a Perkin-Elmer 650-10S fluorescent spectrophotometer using excitation and emission wavelengths set to 350 nm and 420 nm respectively, with slit widths of 5 nm. The assay was standardized by adding 20 μl of NPN (final concentration of 10 μM) and 10 μl of 0.64 mg/ml of polymyxin B (final concentration of 6.4 μg/ml) into 1 ml of cells, and adjusting the resulting fluorescence to read 90% deflection (90 arbitrary units). Various compounds were tested by adding 10 μl of different concentrations to a cuvette containing 1 ml of cells and 10 μM NPN. Permeabilizing activity was designated as the total fluorescence minus the fluorescence due to NPN alone. Following the fluorescence measurement, the OD600 of the cells was taken to ensure no significant cell lysis had occurred.

Another data set has as its system P. aeruginosa. As to the kind of experiment: microbe, parasite or virus in culture. The class given is cell-based, Pseudomonas aeruginosa. The following applies: fragments of CEMA, strain not given. How it is done: (§1) The minimum inhibitory concentrations of (MIC) of CEME, CEMA and melittin were determined for a number of different bacteria (Table 2). Briefly, cells were grown overnight at 37° C. in LB-S (Luria broth without any salt supplement) and diluted one in 10,000 in the same medium to give concentrations of about 10^4 to 10^5 CFU/ml. The broth dilutions were set up in a 96 well microtiter plate by putting 200 μl of LB-S containing the initial concentration of antibiotic or compound in column 1 and 100 μl of the same medium in columns 2-12. The compounds were diluted by taking 100 μl of broth from column 1 and mixing it with column 2, resulting in a one in two dilution. This was continued to column 10. Finally, 10 μl of bacteria were pipetted into columns 1-11, and the plates incubated overnight at 37° C. The next day the plates were scored for growth in the wells, and the MIC determined.
(§2) Bacteria included the Bort strain of E. coli (Bortolussi, et al., Inf. Immun., 25:293, 1979) that was originally derived from a case of neonatal meningitis, and which is therefore considered a relevant pathogenic strain to study, and the 0111:B4 strain of E. coli (kindly provided by Dr. D. Morrison) which is a standard source of endotoxin. (Kelly, et al., Inf. Immun., 59:4491, 1991). In addition, P. aeruginosa PA01 strain H103, P. aeruginosa M2, P. aeruginosa K799, Eschericha coli UB 1005, Enterobacter cloacae 218S, Salmonella typhimurium MS7953s, Klebsiella pneumoniae ATCC 13883, Xanthomonas maltophilia ATCC 13637, and Acinetobacter calcoacetious 8193 were employed. LPS was obtained from E. coli Bort by the technique of Westphal and Jann, (Westphal, et al., Acad. Press, Inc. NY., 5:83) and from P. aeruginosa H103 by the method of Darveau and Hancock, (Darveau, et al., J. Bacteriol, 155:831, […]). E. coli 0111:B4 LPS was purchased from Sigma.

A further data set concerns E. coli. As to the kind of experiment: microbe, parasite or virus in culture. The class given is cell-based, Escherichia coli. As to conditions: fragments of CEMA, strain not given. As to the method: as §1, §2
A further data set concerns S. aureus. Nature of the data set: microbe, parasite or virus in culture. The class given is cell-based, Staphylococcus aureus. The following applies: fragments of CEMA, strain not given. How it is done: as §1
The next data set relates to Candida albicans. As to the kind of experiment: MIC, same assay. Format: cell-based. The following applies: fragments of CEMA.
For another data set, the system named is Gram-negative bacteria. Nature of the data set: MIC range over a broad range of Gram-negative bacteria. The class given is cell-based. As to conditions: broad range of Gram-negative bacteria (Table 9). As to the method:
CEME and CEMA were able to kill a broad range of Gram-negative bacteria with MICs ranging from 1-16 μg/ml (Table 9). These bacteria included many of the life-threatening gram-negative pathogens associated with septicemia and endotoxic shock.
as §2

Data set [3] in a line: Lethality of peptide alone in mice. Format: in vivo.

`CC[C@H](C)[C@H](NC(=O)CN)C(=O)NCC(=O)N[C@@H](C)C(=O)N[C@H](C(=O)N[C@@H](CC(C)C)C(=O)N[C@@H](CCCCN)C(=O)N[C@H](C(=O)N[C@@H](CC(C)C)C(=O)N[C@H](C(=O)N[C@H](C(=O)NCC(=O)N[C@@H](CC(C)C)C(=O)N1CCC[C@H]1C(=O)N[C@@H](C)C(=O)N[C@@H](CC(C)C)C(=O)N[C@H](C(=O)N[C@@H](CO)C(=O)N[C@@H](Cc1c[nH]c2ccccc12)C(=O)N[C@H](C(=O)N[C@@H](CCCCN)C(=O)N[C@@H](CCCNC(=N)N)C(=O)N[C@@H](CCCCN)C(=O)N[C@@H](CCCNC(=N)N)C(=O)N[C@@H](CCC(N)=O)C(=O)N[C@@H](CCC(N)=O)C(N)=O)[C@@H](C)CC)[C@@H](C)CC)[C@@H](C)O)[C@@H](C)O)C(C)C)C(C)C` [Melittin, melittin]: the “antibacterial activity on overlaid gel” value in the data set on E. coli strain DC2 was “zones of clearing”. Moreover, the “permeabilization of outer membrane to lysozyme” value in data set [1] is “did not appear to be a good permeabilizer”. In data set [2], the “activity in opening up the membrane to NPN” value is “less active”.
For `CC[C@H](C)[C@H](NC(=O)CN)C(=O)NCC(=O)N[C@@H](C)C(=O)N[C@H](C(=O)N[C@@H](CC(C)C)C(=O)N[C@@H](CCCCN)C(=O)N[C@H](C(=O)N[C@@H](CC(C)C)C(=O)N[C@H](C(=O)N[C@H](C(=O)NCC(=O)N[C@@H](CC(C)C)C(=O)N1CCC[C@H]1C(=O)N[C@@H](C)C(=O)N[C@@H](CC(C)C)C(=O)N[C@@H](CCCCN)C(=O)N[C@@H](CC(C)C)C(=O)N[C@H](C(=O)N[C@@H](CCCCN)C(=O)O)[C@@H](C)O)[C@@H](C)O)[C@@H](C)O)C(C)C)C(C)C` [MA], the MIC entry in the data set on P. aeruginosa, in the data set on E. coli, with S. aureus and with Candida albicans was “greater than 64 ug/ml” in each case.
In the case of `CC[C@H](C)[C@H](NC(=O)CNC(=O)[C@@H](NC(=O)[C@H](CCCCN)NC(=O)[C@H](CCCCN)NC(=O)[C@H](Cc1ccccc1)NC(=O)[C@H](CC(C)C)NC(=O)[C@H](CCCCN)NC(=O)[C@H](Cc1c[nH]c2ccccc12)NC(=O)[C@@H](N)CCCCN)[C@@H](C)CC)C(=O)NCC(=O)N[C@@H](C)C(=O)N[C@H](C(=O)N[C@@H](CC(C)C)C(=O)N[C@@H](CCCCN)C(=O)N[C@H](C(=O)N[C@@H](CC(C)C)C(=O)N[C@H](C(=O)N[C@H](C(=O)NCC(=O)N[C@@H](CC(C)C)C(=O)N1CCC[C@H]1C(=O)N[C@@H](C)C(=O)N[C@@H](CC(C)C)C(=O)N[C@H](C(=O)N[C@@H](CO)C(=O)O)[C@@H](C)CC)[C@@H](C)O)[C@@H](C)O)C(C)C)C(C)C` [CEME], the “MICs, range over strains” value in the data set with Gram-negative bacteria fell in the range of 1 to 16 µg/mL. In addition, the “survival of mice given peptide alone” value in data set [3] (200 μg (8.7 mg/kg) alone) is recorded as “survived”. Also, in data set [3] (no LPS, peptide 200 ug), the “% Mortality” value worked out at 0% and the dead/total is given as 0/5.
